Measured values from patent US9914735B2, “Heteroaryl Syk inhibitors” (Boehringer Ingelheim International GmbH, priority 2014, dated 2018).
Where two headings read alike, the source gives them in different places.

Experiments:
Type in all cases: biochemical
[1] = target: Recombinant human Syk (amino acids 342-635), GST-Syk kinase fusion protein (Homo sapiens (Human), UniProt P43405); assay: Syk kinase test (Kinase Glo luminescence)
Experimental: (§1) The output file of the reader is a csv file that contains the well number and measured relative light units (RLU). For data evaluation and calculation, the measurement of the negative control was set as 100% ctrl and the measurement of the positive control was set as 0% ctrl. Based on this values the % value for the measurement of each substance concentration was calculated using an Assay Explorer software (Accelrys). Normally, the % ctrl values calculated are between 0% and 100% values but may also occur outside these limits in individual cases based on variability or compound characteristics. The IC50 values were calculated from the % ctrl values using Assay Explorer software. Calculation:[y=(a−d)/(1+(x/c)^b)+d] a=low value, d=high value; x=conc M; c=IC50 M; b=hill; y=% ctrl.

[2] = target: Recombinant human Aurora B (amino acids 1-344) (Homo sapiens (Human), UniProt Q96GD4); assay: Aurora B kinase test (ADP Glo luminescence)
Experimental: The activity of the Aurora B kinase protein was determined using the ADP Glo® Luminescence Kinase test (Promega; V9103X).
Serial Dilution is done in 1:10 steps in 100% DMSO.
Then 20 μl Kinase detection mix (Detection Buffer #V913B Promega; Kinase Detection Substrate #V914B Promega) were added and incubated for 40 minutes at room temperature.
as §1, with “measured RLU.” for “measured relative light units (RLU).”, “as 0%” for “as 100%”, “as 100%” for “as 0%”, “software. Calculation: [y=(a−d)/(1+(x/c)^b)+d],” for “software. Calculation:[y=(a−d)/(1+(x/c)^b)+d]”

[3] = target: FLT3 (Homo sapiens (Human), UniProt P36888); assay: FLT3 kinase test (Z'-LYTE)
Experimental: The activity of FLT3 is measured using the Z′-LYTETM assay technology from Invitrogen (#PV3191)
The reaction is started by addition of 2.5 μl of the 4×ATP solution.
Positive controls are reaction mixtures containing no test compound; negative controls (blanks) are reaction mixtures containing no kinase. As a further control, the phosphopeptide solution is added to wells without kinase (=100% phosphorylation control).
The reaction is performed for 1 h at room temperature before 5 μl of the development solution is added. After a further incubation for 1 h at room temperature 5 μl of the stop reagent is added.
The output text file is evaluated in an “MS-Excel—VB-Makro” and “GraphPadPrism” (Version 5) (GraphPad Software Inc.) is used to calculate the results. Data for the inhibition of FLT3 are reported in M. data for the inhibition of the protease are reported in % CTL.

[4] = Table 1, read-out: SYK-inhibition IC50-value
[5] = Table 1, read-out: AURB-inhibition IC50-value
[6] = Table 1, read-out: FLT3-inhibition IC50-value

FLT3, sequence (P36888 27-993): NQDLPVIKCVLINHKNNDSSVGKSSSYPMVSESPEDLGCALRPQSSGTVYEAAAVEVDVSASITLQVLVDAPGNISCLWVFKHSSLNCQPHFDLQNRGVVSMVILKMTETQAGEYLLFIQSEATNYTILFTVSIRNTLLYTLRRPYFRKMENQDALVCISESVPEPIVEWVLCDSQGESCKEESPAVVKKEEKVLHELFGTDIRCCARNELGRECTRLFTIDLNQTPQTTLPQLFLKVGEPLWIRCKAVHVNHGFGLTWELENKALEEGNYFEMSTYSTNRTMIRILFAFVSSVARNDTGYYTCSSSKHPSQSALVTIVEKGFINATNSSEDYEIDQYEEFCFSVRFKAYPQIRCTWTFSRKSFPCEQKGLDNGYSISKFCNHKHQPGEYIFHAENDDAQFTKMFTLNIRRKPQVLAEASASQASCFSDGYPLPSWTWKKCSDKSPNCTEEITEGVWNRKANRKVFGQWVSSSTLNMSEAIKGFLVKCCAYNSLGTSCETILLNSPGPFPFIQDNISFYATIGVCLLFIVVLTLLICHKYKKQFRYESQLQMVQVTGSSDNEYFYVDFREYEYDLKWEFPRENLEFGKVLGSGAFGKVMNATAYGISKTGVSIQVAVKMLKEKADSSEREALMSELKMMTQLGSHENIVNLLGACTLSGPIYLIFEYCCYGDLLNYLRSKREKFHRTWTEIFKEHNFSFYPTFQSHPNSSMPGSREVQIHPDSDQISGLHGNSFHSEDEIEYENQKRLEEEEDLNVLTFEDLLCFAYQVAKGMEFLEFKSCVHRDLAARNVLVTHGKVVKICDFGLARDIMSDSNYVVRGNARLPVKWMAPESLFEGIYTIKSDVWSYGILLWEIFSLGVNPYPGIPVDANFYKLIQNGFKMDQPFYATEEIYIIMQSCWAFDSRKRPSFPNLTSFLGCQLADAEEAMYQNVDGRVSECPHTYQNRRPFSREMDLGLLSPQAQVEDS
Recombinant human Aurora B (amino acids 1-344), sequence (Q96GD4 whole entry, the tested form may be a part): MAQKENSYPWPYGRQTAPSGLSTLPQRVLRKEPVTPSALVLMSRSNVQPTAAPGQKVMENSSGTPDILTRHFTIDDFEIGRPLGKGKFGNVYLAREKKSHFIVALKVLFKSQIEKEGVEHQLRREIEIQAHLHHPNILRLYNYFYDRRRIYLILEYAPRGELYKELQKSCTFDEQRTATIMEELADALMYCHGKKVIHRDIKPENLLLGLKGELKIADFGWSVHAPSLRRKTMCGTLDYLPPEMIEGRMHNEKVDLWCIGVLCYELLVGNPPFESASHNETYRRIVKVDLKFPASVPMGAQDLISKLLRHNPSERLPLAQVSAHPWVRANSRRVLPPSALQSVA

SMILES	IC50 ([1]; read-out: IC50 in μM (SYK-Inhibition))	IC50 ([2]; read-out: IC50 in μM (AURB-Inhibition))	IC50 ([3]; read-out: IC50 in μM (FLT3-Inhibition))	IC50 [1, 4]	IC50 [2, 5]	IC50 [3, 6]	IC50 ([2]; read-out: AURB-inhibition IC50-value)
C[C@@H](Oc1cc(-c2ccc3c(c2)ncn3C)cc2ncccc12)[C@H]1CNC(=O)C1 [94 of WO 2013/014060]	0.001 µM	0.298 µM	0.267 µM				
C[C@@H](Oc1nc(-c2cnn(C3CCCCO3)c2)cc2nn(C)cc12)[C@H]1CNC(=O)C1 (some centres unmarked) [Example 3]				0.0466 µM	> 50 µM	17.4 µM	
C[C@@H](Oc1nc(-c2cnn(C3CCCCC3)c2)cc2nn(C)cc12)[C@H]1CNC(=O)C1 [Example 7, (R)-4-((R)-1-(6-(1-cyclohexyl-1H-pyrazol-4-yl)-2-methyl-2H-pyrazolo[4,3-c]pyridin-4-yloxy)ethyl)pyrrolidin-2-one]				0.0147 µM	37.3 µM	5.77 µM	
C[C@@H](Oc1nc(-c2cnn(C3CCNCC3)c2)cc2nn(C)cc12)[C@H]1CNC(=O)C1 [Example 9, (4R)-4-[(1R)-1-[2-Methyl-6-[1-(4-piperidyl)pyrazol-4-yl]pyrazolo[4,3-c]pyridin-4-yl]oxyethyl]pyrrolidin-2-one]				0.0424 µM	> 50 µM	3.67 µM	
C[C@@H](Oc1nc(-c2cnn(C3CCC(F)(F)CC3)c2)cc2nn(C)cc12)[C@H]1CNC(=O)C1 [Example 10, (4R)-4-[(1R)-1-[6-[1-(4,4-Difluorocyclohexyl)pyrazol-4-yl]-2-methyl-pyrazolo[4,3-c]pyridin-4-yl]oxyethyl]pyrrolidin-2-one]				0.0218 µM	36 µM	8.03 µM	
C[C@@H](Oc1nc(-c2cc3nn(C)cc3c(O[C@H](C)[C@H]3CNC(=O)C3)n2)cc2nn(C)cc12)[C@@H]1CNC(=O)C1 [Example 11, (4S)-4-[(1R)-1-[2-methyl-6-[2-methyl-4-[(1R)-1-[(3R)-5-oxopyrrolidin-3-yl]ethoxy]-pyrazolo[4,3-c]pyridin-6-yl]pyrazolo[4,3-c]pyridin-4-yl]oxyethyl]pyrrolidin-2-one]				0.935 µM	> 50 µM	37.4 µM	
C[C@@H](Oc1nc(-c2cnn([C@H]3CC[C@H](N4CCN(C)C(=O)C4)CC3)c2)cc2nn(C)cc12)[C@H]1CNC(=O)C1 [Example 12, 1-methyl-4-[4-[4-[2-methyl-4-[(1R)-1-[(3R)-5-oxopyrrolidin-3-yl]ethoxy]pyrazolo[4,3-c]pyridin-6-yl]pyrazol-1-yl]-cyclohexyl]piperazin-2-one]				0.0123 µM	34.1 µM	8.33 µM	
C[C@@H](Oc1nc(-c2cc3nn(C)cc3c(=O)[nH]2)cc2nn(C)cc12)[C@H]1CNC(=O)C1 [Example 13, 2-Methyl-6-[2-methyl-4-[(1R)-1-[(3R)-5-oxopyrrolidin-3-yl]ethoxy]pyrazolo[4,3-c]pyridin-6-yl]-5H-pyrazolo[4,3-c]pyridin-4-one]				0.831 µM	> 50 µM	> 50 µM	
C[C@@H](Oc1cc(-c2ccn(C)n2)cc2nn(C)cc12)[C@H]1CNC(=O)C1 [Example 14, (4R)-4-[(1R)-1-[2-methyl-6-(1-methylpyrazol-3-yl)indazol-4-yl]oxyethyl]-pyrrolidin-2-one]				0.0421 µM		40.8 µM	
C[C@@H](Oc1cc(-c2cnn(CCC(F)(F)F)c2)cc2nn(C)cc12)[C@H]1CNC(=O)C1 [Example 15, (4R)-4-[(1R)-1-[2-Methyl-6-[1-(3,3,3-trifluoropropyl)pyrazol-4-yl]indazol-4-yl]oxyethyl]pyrrolidin-2-one]				0.0187 µM	33.4 µM	10.1 µM	
C[C@@H](Oc1cc(-c2n[nH]c3ccc(C#N)cc23)cc2nn(C)cc12)[C@H]1CNC(=O)C1 [Example 16, 3-[2-methyl-4-[(1R)-1-[(3R)-5-oxopyrrolidin-3-yl]-ethoxy]indazol-6-yl]-1H-indazole-5-carbonitrile]				0.0065 µM	> 50 µM	10.6 µM	
Cc1nccn1Cc1ccc(-c2cc3nn(C)cc3c(O[C@H](C)[C@H]3CNC(=O)C3)n2)cc1 [Example 17]				0.0316 µM	> 50 µM	1.61 µM	
C[C@@H](Oc1cc(-c2ccc(N3CCCS3(=O)=O)cc2)cc2nn(C)cc12)[C@H]1CNC(=O)C1 [Example 33]				0.0245 µM	> 50 µM	3.88 µM	
C[C@@H](Oc1cc(-c2cnn(C(F)F)c2)cc2nn(C)cc12)[C@H]1CNC(=O)C1 [Example 40, (4R)-4-[(1R)-1-[6-[1-(difluoromethyl)pyrazol-4-yl]-2-methyl-indazol-4-yl]oxyethyl]pyrrolidin-2-one]				0.0343 µM	31.4 µM	8.95 µM	
COc1cc(-c2cc3nn(C)cc3c(O[C@H](C)[C@H]3CNC(=O)C3)n2)ccc1OC1CCOCC1 [Example 73, (4R)-4-[(1R)-1-[6-(3-Methoxy-4-tetrahydropyran-4-yloxy-phenyl)-2-methyl-pyrazolo[4,3-c]pyridin-4-yl]oxyethyl]pyrrolidin-2-one]						4.17 µM	49.1 µM

Second part, led by results:

IC50 ([1]; read-out: IC50 in μM (SYK-Inhibition))	IC50 ([2]; read-out: IC50 in μM (AURB-Inhibition))	IC50 ([3]; read-out: IC50 in μM (FLT3-Inhibition))	IC50 [1, 4]	IC50 [2, 5]	IC50 [3, 6]	SMILES	IC50 ([2]; read-out: AURB-inhibition IC50-value)
			0.0649 µM	> 50 µM	15.1 µM	C[C@@H](Oc1cc(-c2cnc3ccc(C#N)cn23)cc2nn(C)cc12)[C@H]1CNC(=O)C1 [Example 43, 3-[2-methyl-4-[(1R)-1-[(3R)-5-oxopyrrolidin-3-yl]ethoxy]indazol-6-yl]imidazo[1,2-a]pyridine-6-carbonitrile]	
			0.0067 µM	26 µM	4.77 µM	C[C@@H](Oc1cc(-c2cnn(C3CCOCC3)c2)cc2nn(C)cc12)[C@H]1CNC(=O)C1 [Example 47, (4R)-4-[(1R)-1-[2-methyl-6-(1-tetrahydropyran-4-ylpyrazol-4-yl)indazol-4-yl]oxyethyl]pyrrolidin-2-one]	
			0.0556 µM	> 50 µM	16.9 µM	C[C@@H](Oc1cc(-c2cc3cccc(Cl)c3[nH]2)cc2nn(C)cc12)[C@H]1CNC(=O)C1 [Example 48, (4R)-4-[(1R)-1-[6-(7-chloro-1H-indol-2-yl)-2-methyl-indazol-4-yl]oxyethyl]-pyrrolidin-2-one]	
			0.0554 µM	48 µM	9.52 µM	C[C@@H](Oc1nc(-c2ccc(C3CC3)nc2)cc2nn(C)cc12)[C@H]1CNC(=O)C1 [Example 50, (4R)-4-[(1R)-1-[6-(6-Cyclopropyl-3-pyridyl)-2-methyl-pyrazolo[4,3-c]pyridine-4-yl]oxyethyl]pyrrolidin-2-one]	
				> 50 µM	34.1 µM	COc1ccc2[nH]cc(-c3cc4nn(C)cc4c(O[C@H](C)[C@H]4CNC(=O)C4)n3)c2c1 [Example 53, (4R)-4-[(1R)-1-[6-(5-methoxy-1H-indol-3-yl)-2-methyl-pyrazolo[4,3-c]pyridin-4-yl]oxyethyl]pyrrolidin-2-one]	
			0.0892 µM	> 50 µM	16 µM	Cc1ccc(-c2cc3nn(C)cc3c(O[C@H](C)[C@H]3CNC(=O)C3)n2)s1 [Example 54, (4R)-4-[(1R)-1-[2-methyl-6-(5-methyl-2-thienyl)pyrazolo-[4,3-c]pyridin-4-yl]oxyethyl]-pyrrolidin-2-one]	
			0.0436 µM	> 50 µM	3.07 µM	C[C@@H](Oc1nc(-c2ccc3c(c2)CCN(C)CC3)cc2nn(C)cc12)[C@H]1CNC(=O)C1 [Example 55, (4R)-4-[(1R)-1-[2-methyl-6-(3-methyl-1,2,4,5-tetrahydro-3-benzazepin-7-yl)pyrazolo-[4,3-c]pyridin-4-yl]oxyethyl]-pyrrolidin-2-one]	
			0.0901 µM	> 50 µM	32 µM	COCCn1cc(-c2cc3nn(C)cc3c(O[C@H](C)[C@H]3CNC(=O)C3)n2)cn1 [Example 57, (4R)-4-[(1R)-1-[6-[1-(2-methoxyethyl)pyrazol-4-yl]-2-methyl-pyrazolo[4,3-c]pyridin-4-yl]oxyethyl]pyrrolidin-2-one]	
				> 50 µM	7.78 µM	C[C@@H](Oc1nc(-c2cnn(C3CCN(C)CC3)c2)cc2nn(C)cc12)[C@H]1CNC(=O)C1 [Example 82, (4R)-4-[(1R)-1-[2-Methyl-6-[1-(1-methyl-4-piperidyl)pyrazol-4-yl]pyrazolo [4,3-c]pyridin-4-yl]oxyethyl]pyrrolidin-2-one]	
